From patent US9566261B2 (priority 2013, dated 2017)

Test system: lithium-pilocarpine treated rats
Test: Morris water maze using pilocarpine-induced status epilepticus (SE)
Type: in vivo
Description: To assess spatial memory and learning in lithium-pilocarpine treated animals and to identify novel compounds that might ameliorate cognitive deficits and neuronal loss associated with pilocarpine-induced status epilepticus (SE). Morris water maze has been used extensively in the study of learning and memory. This test uses a round pool of water in which an escape platform is submerged beneath the surface. The task is to find the hidden platform using only extra maze visual cues (Morris, 1984). Learning can be assessed by quantifying the time that an animal takes to find the platform (latency) over a number of independent trials. […]
Twenty four hours prior to pilocarpine administration, rats were weighed and given lithium chloride (127 mg/kg; i.p.). On the next day, they received pilocarpine hydrochloride (50 mg/kg; i.p.) and were monitored carefully for behavioral seizures. […] All animals were observed and scored for seizure severity for an additional 1.5 hr. […] In our spatial learning protocol rats, received 4 training trials per day wherein the outcome measure evaluated was their ability to find the hidden platform. […] On each of the trials, rats were placed in the water facing the wall at one of the 4 randomly determined starting locations (north, west, east or south) and allowed 120 sec to find the platform. […]

`C[C@H](OC(N)=O)[C@@H](O)c1ccccc1Cl` [Compound 1, 1-(2-chlorophenyl)-(S)-1-hydroxypropyl-(S)-2-carbamate] was tested, and the “average time to find the escape platform (latency)” value (65 mg/kg i.p. 15 minutes after the first stage 3 seizure, vs pilocarpine alone group, FIG. 3) was “significant difference in the Pilo+Compound 1 group as compared to the pilocarpine alone group” and the mortality (125 mg/kg administered 30 min after the first convulsive seizure) was “death of all animals”.
